ChEMBL document CHEMBL4020712, “Synthesis of new N3-substituted dihydropyrimidine derivatives as L-/T- type calcium channel blockers” (Eur J Med Chem, 2017)
Activity calls are given as the source filed them. The calls are words filed in the database; no cut-off is given here.

What was measured:
[1] = biological target: Cav1.2 (voltage-dependent L-type calcium channel subunit alpha-1C) (Rattus norvegicus, UniProt P22002); test: Inhibition of rat Cav1.2 expressed in human tsA-201 cells co-expressing Cavbeta1b/Cavalpha2delta1 assessed as tonic block at 10 uM at holding potential of -90 mV by whole cell patch clamp method relative to control; type: cell-based
[2] = biological target: Voltage-dependent T-type calcium channel subunit alpha-1H (Homo sapiens) (UniProt O95180); test: Inhibition of human Cav3.2 alpha1 expressed in human tsA-201 cells assessed as tonic block at 10 uM at holding potential of -110 mV by whole cell patch clamp method; type: cell-based
Voltage-dependent T-type calcium channel subunit alpha-1H (Homo sapiens), sequence (O95180 whole entry): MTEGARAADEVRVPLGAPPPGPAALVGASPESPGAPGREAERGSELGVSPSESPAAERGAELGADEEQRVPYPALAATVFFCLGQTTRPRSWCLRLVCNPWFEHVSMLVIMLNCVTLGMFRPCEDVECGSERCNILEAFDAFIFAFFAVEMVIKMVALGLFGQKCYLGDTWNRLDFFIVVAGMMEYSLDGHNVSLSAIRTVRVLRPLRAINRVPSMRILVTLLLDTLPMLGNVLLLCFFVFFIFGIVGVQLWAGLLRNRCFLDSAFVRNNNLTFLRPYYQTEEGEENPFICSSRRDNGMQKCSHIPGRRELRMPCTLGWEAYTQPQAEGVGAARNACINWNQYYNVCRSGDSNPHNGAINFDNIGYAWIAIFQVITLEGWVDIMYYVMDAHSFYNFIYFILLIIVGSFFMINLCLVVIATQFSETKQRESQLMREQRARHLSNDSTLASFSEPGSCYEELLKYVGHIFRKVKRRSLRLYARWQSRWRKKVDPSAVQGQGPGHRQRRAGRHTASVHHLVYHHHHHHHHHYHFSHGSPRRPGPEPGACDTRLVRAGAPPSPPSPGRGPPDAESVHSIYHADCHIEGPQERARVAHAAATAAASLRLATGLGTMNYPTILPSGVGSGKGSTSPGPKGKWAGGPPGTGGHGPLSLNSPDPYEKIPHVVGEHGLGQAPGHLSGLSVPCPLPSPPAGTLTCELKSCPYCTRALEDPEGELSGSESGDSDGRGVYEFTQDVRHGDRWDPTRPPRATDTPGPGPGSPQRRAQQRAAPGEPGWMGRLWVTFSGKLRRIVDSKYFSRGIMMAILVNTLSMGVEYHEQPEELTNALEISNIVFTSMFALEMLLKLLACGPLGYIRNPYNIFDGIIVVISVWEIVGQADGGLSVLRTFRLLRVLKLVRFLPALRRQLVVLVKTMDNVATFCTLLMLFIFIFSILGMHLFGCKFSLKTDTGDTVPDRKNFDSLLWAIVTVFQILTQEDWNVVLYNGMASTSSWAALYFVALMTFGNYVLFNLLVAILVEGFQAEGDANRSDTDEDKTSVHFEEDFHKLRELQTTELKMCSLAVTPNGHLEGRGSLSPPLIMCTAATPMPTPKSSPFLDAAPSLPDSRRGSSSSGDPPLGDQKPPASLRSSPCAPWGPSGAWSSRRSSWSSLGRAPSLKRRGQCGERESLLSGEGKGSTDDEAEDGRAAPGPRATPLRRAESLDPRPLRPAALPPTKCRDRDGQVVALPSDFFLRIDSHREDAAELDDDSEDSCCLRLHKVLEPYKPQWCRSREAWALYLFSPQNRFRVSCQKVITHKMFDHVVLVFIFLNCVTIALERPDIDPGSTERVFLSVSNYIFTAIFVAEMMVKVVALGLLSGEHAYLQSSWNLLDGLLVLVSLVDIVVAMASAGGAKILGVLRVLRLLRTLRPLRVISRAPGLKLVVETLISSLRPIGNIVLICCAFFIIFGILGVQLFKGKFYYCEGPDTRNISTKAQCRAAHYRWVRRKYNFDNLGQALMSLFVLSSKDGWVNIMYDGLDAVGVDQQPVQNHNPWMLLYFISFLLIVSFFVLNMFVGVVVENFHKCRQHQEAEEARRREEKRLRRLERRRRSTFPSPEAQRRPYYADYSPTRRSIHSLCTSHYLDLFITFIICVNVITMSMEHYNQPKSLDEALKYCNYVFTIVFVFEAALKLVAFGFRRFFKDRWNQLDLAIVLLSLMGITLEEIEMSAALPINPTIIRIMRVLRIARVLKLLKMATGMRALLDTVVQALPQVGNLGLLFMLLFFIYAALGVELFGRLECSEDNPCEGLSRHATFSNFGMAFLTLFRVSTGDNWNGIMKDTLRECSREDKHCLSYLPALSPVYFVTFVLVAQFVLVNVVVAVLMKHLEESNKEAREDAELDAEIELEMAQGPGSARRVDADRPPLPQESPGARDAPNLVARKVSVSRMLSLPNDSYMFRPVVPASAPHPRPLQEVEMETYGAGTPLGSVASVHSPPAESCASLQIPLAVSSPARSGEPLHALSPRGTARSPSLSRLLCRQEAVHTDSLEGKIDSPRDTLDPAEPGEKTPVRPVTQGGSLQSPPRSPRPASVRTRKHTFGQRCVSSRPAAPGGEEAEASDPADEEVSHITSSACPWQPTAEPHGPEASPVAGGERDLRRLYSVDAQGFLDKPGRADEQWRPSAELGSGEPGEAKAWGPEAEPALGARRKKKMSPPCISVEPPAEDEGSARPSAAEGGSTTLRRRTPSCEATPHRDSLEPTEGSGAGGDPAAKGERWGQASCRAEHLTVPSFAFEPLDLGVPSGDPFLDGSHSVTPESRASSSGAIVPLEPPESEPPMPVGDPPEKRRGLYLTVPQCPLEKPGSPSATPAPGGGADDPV

Cav1.2 (voltage-dependent L-type calcium channel subunit alpha-1C), sequence (P22002 whole entry): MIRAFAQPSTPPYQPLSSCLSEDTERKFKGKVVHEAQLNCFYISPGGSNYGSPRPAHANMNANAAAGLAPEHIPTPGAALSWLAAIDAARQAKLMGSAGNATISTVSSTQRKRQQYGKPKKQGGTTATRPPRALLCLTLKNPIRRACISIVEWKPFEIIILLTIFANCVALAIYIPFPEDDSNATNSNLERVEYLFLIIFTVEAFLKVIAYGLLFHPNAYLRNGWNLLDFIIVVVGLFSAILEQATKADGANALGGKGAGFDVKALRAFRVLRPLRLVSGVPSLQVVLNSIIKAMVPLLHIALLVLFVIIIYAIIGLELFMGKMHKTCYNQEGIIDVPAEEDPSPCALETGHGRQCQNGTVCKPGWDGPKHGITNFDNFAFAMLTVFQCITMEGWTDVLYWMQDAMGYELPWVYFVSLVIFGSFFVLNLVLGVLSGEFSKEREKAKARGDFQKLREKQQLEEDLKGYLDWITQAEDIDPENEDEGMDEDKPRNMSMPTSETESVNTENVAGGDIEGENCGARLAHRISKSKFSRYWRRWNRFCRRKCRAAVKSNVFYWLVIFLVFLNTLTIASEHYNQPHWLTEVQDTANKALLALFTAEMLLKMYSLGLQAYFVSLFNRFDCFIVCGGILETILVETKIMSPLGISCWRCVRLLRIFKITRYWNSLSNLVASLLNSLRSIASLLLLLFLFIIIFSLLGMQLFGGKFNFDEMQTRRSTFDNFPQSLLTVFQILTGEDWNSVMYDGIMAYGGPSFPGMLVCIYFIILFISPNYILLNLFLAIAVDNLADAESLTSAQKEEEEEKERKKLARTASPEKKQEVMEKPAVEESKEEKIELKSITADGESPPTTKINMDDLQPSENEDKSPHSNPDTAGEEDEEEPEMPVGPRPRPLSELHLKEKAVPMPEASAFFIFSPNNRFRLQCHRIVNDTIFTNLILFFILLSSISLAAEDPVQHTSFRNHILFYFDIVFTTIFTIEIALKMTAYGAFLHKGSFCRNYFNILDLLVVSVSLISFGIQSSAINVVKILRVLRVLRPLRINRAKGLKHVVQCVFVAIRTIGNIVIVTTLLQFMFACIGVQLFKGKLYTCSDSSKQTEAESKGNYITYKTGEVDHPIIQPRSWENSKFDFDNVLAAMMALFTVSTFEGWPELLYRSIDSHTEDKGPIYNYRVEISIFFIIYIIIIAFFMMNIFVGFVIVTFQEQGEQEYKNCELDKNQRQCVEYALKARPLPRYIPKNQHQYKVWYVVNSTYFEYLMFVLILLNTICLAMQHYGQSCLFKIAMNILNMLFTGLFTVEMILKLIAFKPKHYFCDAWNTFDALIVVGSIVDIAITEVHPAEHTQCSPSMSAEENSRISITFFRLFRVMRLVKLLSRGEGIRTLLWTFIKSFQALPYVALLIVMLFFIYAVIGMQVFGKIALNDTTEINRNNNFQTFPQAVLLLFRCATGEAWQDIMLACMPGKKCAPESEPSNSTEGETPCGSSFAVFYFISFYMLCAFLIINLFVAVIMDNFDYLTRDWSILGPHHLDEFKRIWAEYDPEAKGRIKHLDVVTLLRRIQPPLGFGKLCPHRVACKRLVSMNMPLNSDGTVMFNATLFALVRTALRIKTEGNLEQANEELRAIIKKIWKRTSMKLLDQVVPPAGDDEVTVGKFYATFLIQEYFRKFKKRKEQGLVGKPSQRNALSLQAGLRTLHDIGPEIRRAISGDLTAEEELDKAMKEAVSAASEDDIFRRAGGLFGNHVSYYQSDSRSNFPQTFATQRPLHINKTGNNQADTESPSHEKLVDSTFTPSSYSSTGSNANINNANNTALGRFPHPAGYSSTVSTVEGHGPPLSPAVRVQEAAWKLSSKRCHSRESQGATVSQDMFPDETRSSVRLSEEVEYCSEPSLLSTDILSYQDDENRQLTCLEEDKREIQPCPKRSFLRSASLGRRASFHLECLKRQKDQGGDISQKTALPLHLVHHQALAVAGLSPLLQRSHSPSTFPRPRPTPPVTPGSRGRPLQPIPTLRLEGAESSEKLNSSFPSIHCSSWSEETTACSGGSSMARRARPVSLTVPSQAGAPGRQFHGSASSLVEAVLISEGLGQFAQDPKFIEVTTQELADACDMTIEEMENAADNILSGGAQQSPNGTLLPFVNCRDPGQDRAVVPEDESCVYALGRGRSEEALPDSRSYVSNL

| SMILES | inhibition [2] | inhibition at 10 µM [1] [%] |
| --- | --- | --- |
| CCOC(=O)C1=C(C)NC(=O)N(CCC(=O)NCC(c2ccccc2)c2ccccc2)C1c1cccc([N+](=O)[O-])c1 (stereo not drawn) | inactive | < 50 |
| CCOC(=O)C1=C(C)NC(=O)N(CCC(=O)OCc2cn(CC(=O)c3ccccc3)nn2)C1c1cccc([N+](=O)[O-])c1 (stereo not drawn) | Active | < 50 |
| CCOC(=O)C1=C(C)NC(=O)N(CCC(=O)OCc2cn(Cc3ccccc3)nn2)C1c1cccc([N+](=O)[O-])c1 (stereo not drawn) | Active | < 50 |
| CCOC(=O)C1=C(C)NC(=O)N(CCC(=O)OCCOC)C1c1cccc([N+](=O)[O-])c1 (stereo not drawn) | Active | 50 |
| CCOC(=O)C1=C(C)NC(=O)N(CCC(=O)N(C)Cc2ccccc2)C1c1cccc([N+](=O)[O-])c1 (stereo not drawn) | inactive | < 50 |
| CCOC(=O)C1=C(C)NC(=O)N(CCC(=O)NCc2ccccc2)C1c1cccc([N+](=O)[O-])c1 (stereo not drawn) | inactive | < 50 |

Second part, led by results:

| inhibition [2] | SMILES | inhibition at 10 µM [1] [%] |
| --- | --- | --- |
| Active | C#CCOC(=O)CCN1C(=O)NC(C)=C(C(=O)OCC)C1c1cccc([N+](=O)[O-])c1 (stereo not drawn) | 50 |
| Active | CCOC(=O)CCN1C(=O)NC(C)=C(C(=O)OCC)C1c1cccc([N+](=O)[O-])c1 (stereo not drawn) | > 75 |
| inactive | CCOC(=O)C1=C(C)NC(=O)N(CCC(=O)OC(C)C)C1c1cccc([N+](=O)[O-])c1 (stereo not drawn) | < 50 |
| inactive | CCOC(=O)C1=C(C)NC(=O)N(CCC#N)C1c1cccc([N+](=O)[O-])c1 (stereo not drawn) | < 50 |
| inactive | CCOC(=O)C1=C(C)NC(=O)N(CCC(=O)OC)C1c1cccc([N+](=O)[O-])c1 (stereo not drawn) | < 50 |
| inactive | CCOC(=O)C1=C(C)NC(=O)N(CCC(N)=O)C1c1cccc([N+](=O)[O-])c1 (stereo not drawn) | < 50 |
| inactive | CCOC(=O)C1=C(C)NC(=O)N(CCC(=O)NN)C1c1cccc([N+](=O)[O-])c1 (stereo not drawn) | < 50 |
| inactive | CCOC(=O)C1=C(C)NC(=O)N(CCC(=O)O)C1c1cccc([N+](=O)[O-])c1 (stereo not drawn) | < 50 |
